Measured values: US6358885B1, “Substituted phenylheterocyclic herbicides” (Mississippi State University, priority 1992, dated 2002)

Assays:
wild oat = test: Test B preemergence/postemergence greenhouse plant response rating 0 to 10; format: in vivo, Avena fatua; details: for Plant response rating, Wild oat: 0 to 10 scale
How it was run: (§1)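 Both application timings were run together: seeds got compound preemergence, and established seedlings (two to eighteen cm) got it postemergence. Non-phytotoxic solvent carried the chemical. Ratings are visual, versus controls, at twelve to sixteen days.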

rice = test: as above; format: in vivo, Oryza sativa; details: for Plant response rating, Rice: 0 to 10 scale
How it was run: as §1

pigweed = test: Test C preemergence/postemergence greenhouse plant response rating 0 to 100; format: in vivo, Amaranthusretroflexus; details: for Plant response rating Pigweed: 125 g/ha, 0 to 100 scale
How it was run: (§2)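 Compounds in non-phytotoxic solvent applied preemergence to sandy loam one day after planting, postemergence at the 1–4 leaf stage, or to ~2.5 cm floodwater over silt loam.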

cotton [1] = test: Test B preemergence/postemergence greenhouse plant response rating 0 to 10; format: in vivo, Gossypium hirsutum; details: for Plant response rating, Cotton: 0 to 10 scale
How it was run: as §1

wheat [2] = test: as above; format: in vivo, Triticum aestivum; details: for Plant response rating, Wheat: 0 to 10 scale
How it was run: as §1

duck salad = test: Test C flood test plant response rating 0 to 100; format: in vivo, Heteranthera limosa
How it was run: as §2

wheat [3] = test: Test C preemergence/postemergence greenhouse plant response rating 0 to 100; format: in vivo, Triticum aestivum; details: for Plant response rating, Wheat: 125 g/ha, 0 to 100 scale
How it was run: as §2

sorghum = test: Test B preemergence/postemergence greenhouse plant response rating 0 to 10; format: in vivo, Sorghum bicolor; details: for Plant response rating, Sorghum: 0 to 10 scale
How it was run: as §1

velvetleaf = test: Test C preemergence/postemergence greenhouse plant response rating 0 to 100; format: in vivo, Abutilon theophrasti; details: for Plant response rating, Velvetleaf: 125 g/ha, 0 to 100 scale
How it was run: as §2

purple nutsedge = test: Test B preemergence/postemergence greenhouse plant response rating 0 to 10; format: in vivo, Cyperus rotundus; details: for Plant response rating, Nutsedge: 0 to 10 scale
How it was run: as §1

blackgrass = test: as above; format: in vivo, Alopecurus myosuroides; details: for Plant response rating, Blackgrass: 0 to 10 scale
How it was run: as §1

sugar beet = test: as above; format: in vivo, Beta vulgaris; details: for Plant response rating, Sugar beet: 0 to 10 scale
How it was run: as §1

lambsquarters = test: Test C preemergence/postemergence greenhouse plant response rating 0 to 100; format: in vivo, Chenopodium album; details: for Plant response rating Lambsquarters: 125 g/ha, 0 to 100 scale
How it was run: as §2

wild buckwheat = test: as above; format: in vivo, Polygonum convolvulus; details: for Plant response rating, Wild buckwheat: 125 g/ha, 0 to 100 scale
How it was run: as §2

cotton [4] = test: as above; format: in vivo, Gossypium hirsutum; details: for Plant response rating, Cotton: 125 g/ha, 0 to 100 scale
How it was run: as §2

barnyardgrass = test: Test C flood test plant response rating 0 to 100; format: in vivo, Echinochloa crus-galli
How it was run: as §2

crabgrass = test: Test B preemergence/postemergence greenhouse plant response rating 0 to 10; format: in vivo, Digitaria spp.; details: for Plant response rating, Crabgrass: 0 to 10 scale
How it was run: as §1

corn = test: as above; format: in vivo, Zea mays; details: for Plant response rating, Corn: 0 to 10 scale
How it was run: as §1

[5] = POSTEMERGENCE section, flood test, Rate 2 g/ha
[6] = Rate 8 g/ha, under POSTEMERGENCE head (flood test species)
[7] = Rate 31 g/ha, under POSTEMERGENCE head (flood test species)
[8] = flood test species listed under POSTEMERGENCE, 125 g/ha, 0 to 100 scale

COCOc1cc(-c2nn3c(c2Cl)CCCC3)c(F)cc1Cl [Compound 58]
Plant response rating, Wild oat (wild oat; POSTEMERGENCE, Rate 50 g/ha): 7
Plant response rating, Wild oat (wild oat; PREEMERGENCE, Rate 50 g/ha): 6
Plant response rating (0 to 10 scale), Wild oat (wild oat; PREEMERGENCE, Rate 200 g/ha): 9
Plant response rating, Wild oat (wild oat; Rate 200 g/ha, POSTEMERGENCE): 9
Plant response rating, Rice (rice; POSTEMERGENCE, Rate 50 g/ha): 4
Plant response rating, Rice (rice; PREEMERGENCE, Rate 50 g/ha): 0
Plant response rating (0 to 10 scale), Rice (rice; PREEMERGENCE, Rate 200 g/ha): 0
Plant response rating, Rice (rice; Rate 200 g/ha, POSTEMERGENCE): 5
Plant response rating Pigweed (pigweed; POSTEMERGENCE): 100
Plant response rating (0 to 100), Pigweed (pigweed; POSTEMERGENCE, Rate 2 g/ha): 90
Plant response rating Pigweed (pigweed; PREEMERGENCE): 100
Plant response rating (0 to 100), Pigweed (pigweed; PREEMERGENCE, Rate 2 g/ha): 0
Plant response rating (0 to 100), Pigweed (pigweed; Rate 8 g/ha, POSTEMERGENCE): 100
Plant response rating (0 to 100), Pigweed (pigweed; Rate 8 g/ha, PREEMERGENCE): 100
Plant response rating (0 to 100), Pigweed (pigweed; Rate 31 g/ha, POSTEMERGENCE): 100
Plant response rating (0 to 100), Pigweed (pigweed; Rate 31 g/ha, PREEMERGENCE): 100
Plant response rating, Cotton (cotton [1]; POSTEMERGENCE, Rate 50 g/ha): 10
Plant response rating, Cotton (cotton [1]; PREEMERGENCE, Rate 50 g/ha): 0
Plant response rating (0 to 10 scale), Cotton (cotton [1]; PREEMERGENCE, Rate 200 g/ha): 0
Plant response rating, Cotton (cotton [1]; Rate 200 g/ha, POSTEMERGENCE): 10
Plant response rating, Wheat (wheat [2]; POSTEMERGENCE, Rate 50 g/ha): 7
Plant response rating, Wheat (wheat [2]; PREEMERGENCE, Rate 50 g/ha): 2
Plant response rating (0 to 10 scale), Wheat (wheat [2]; PREEMERGENCE, Rate 200 g/ha): 7
Plant response rating, Wheat (wheat [2]; Rate 200 g/ha, POSTEMERGENCE): 8
Plant response rating (0 to 100), Duck salad (duck salad; [5]): 0
Plant response rating (0 to 100), Duck salad (duck salad; [6]): 20
Plant response rating (0 to 100), Duck salad (duck salad; [7]): 80
Plant response rating Duck salad (duck salad; [8]): 85
Plant response rating, Wheat (wheat [3]; POSTEMERGENCE): 60
Plant response rating (0 to 100), Wheat (wheat [3]; POSTEMERGENCE, Rate 2 g/ha): 30
Plant response rating, Wheat (wheat [3]; PREEMERGENCE): 30
Plant response rating (0 to 100), Wheat (wheat [3]; PREEMERGENCE, Rate 2 g/ha): 0
Plant response rating (0 to 100), Wheat (wheat [3]; Rate 8 g/ha, POSTEMERGENCE): 40
Plant response rating (0 to 100), Wheat (wheat [3]; Rate 8 g/ha, PREEMERGENCE): 0
Plant response rating (0 to 100), Wheat (wheat [3]; Rate 31 g/ha, POSTEMERGENCE): 50
Plant response rating (0 to 100), Wheat (wheat [3]; Rate 31 g/ha, PREEMERGENCE): 10
Plant response rating, Sorghum (sorghum; POSTEMERGENCE, Rate 50 g/ha): 4
Plant response rating, Sorghum (sorghum; PREEMERGENCE, Rate 50 g/ha): 2
Plant response rating (0 to 10 scale), Sorghum (sorghum; PREEMERGENCE, Rate 200 g/ha): 3
Plant response rating, Sorghum (sorghum; Rate 200 g/ha, POSTEMERGENCE): 6
Plant response rating, Velvetleaf (velvetleaf; POSTEMERGENCE): 100
Plant response rating (0 to 100), Velvetleaf (velvetleaf; POSTEMERGENCE, Rate 2 g/ha): 40
Plant response rating, Velvetleaf (velvetleaf; PREEMERGENCE): 100
Plant response rating (0 to 100), Velvetleaf (velvetleaf; PREEMERGENCE, Rate 2 g/ha): 0
Plant response rating (0 to 100), Velvetleaf (velvetleaf; Rate 8 g/ha, POSTEMERGENCE): 75
Plant response rating (0 to 100), Velvetleaf (velvetleaf; Rate 8 g/ha, PREEMERGENCE): 40
Plant response rating (0 to 100), Velvetleaf (velvetleaf; Rate 31 g/ha, POSTEMERGENCE): 80
Plant response rating (0 to 100), Velvetleaf (velvetleaf; Rate 31 g/ha, PREEMERGENCE): 100
Plant response rating, Nutsedge (purple nutsedge; POSTEMERGENCE, Rate 50 g/ha): 5
Plant response rating, Nutsedge (purple nutsedge; PREEMERGENCE, Rate 50 g/ha): 0
Plant response rating (0 to 10 scale), Nutsedge (purple nutsedge; PREEMERGENCE, Rate 200 g/ha): 0
Plant response rating, Nutsedge (purple nutsedge; Rate 200 g/ha, POSTEMERGENCE): 9
Plant response rating, Blackgrass (blackgrass; POSTEMERGENCE, Rate 50 g/ha): 6
Plant response rating, Blackgrass (blackgrass; PREEMERGENCE, Rate 50 g/ha): 4
Plant response rating (0 to 10 scale), Blackgrass (blackgrass; PREEMERGENCE, Rate 200 g/ha): 7
Plant response rating, Blackgrass (blackgrass; Rate 200 g/ha, POSTEMERGENCE): 7
Plant response rating, Sugar beet (sugar beet; POSTEMERGENCE, Rate 50 g/ha): 10
Plant response rating, Sugar beet (sugar beet; PREEMERGENCE, Rate 50 g/ha): 9
Plant response rating (0 to 10 scale), Sugar beet (sugar beet; PREEMERGENCE, Rate 200 g/ha): 10
Plant response rating, Sugar beet (sugar beet; Rate 200 g/ha, POSTEMERGENCE): 10
Plant response rating Lambsquarters (lambsquarters; POSTEMERGENCE): 100
Plant response rating (0 to 100), Lambsquarters (lambsquarters; POSTEMERGENCE, Rate 2 g/ha): 50
Plant response rating Lambsquarters (lambsquarters; PREEMERGENCE): 100
Plant response rating (0 to 100), Lambsquarters (lambsquarters; PREEMERGENCE, Rate 2 g/ha): 0
Plant response rating (0 to 100), Lambsquarters (lambsquarters; Rate 8 g/ha, POSTEMERGENCE): 85
Plant response rating (0 to 100), Lambsquarters (lambsquarters; Rate 8 g/ha, PREEMERGENCE): 100
Plant response rating (0 to 100), Lambsquarters (lambsquarters; Rate 31 g/ha, POSTEMERGENCE): 100
Plant response rating (0 to 100), Lambsquarters (lambsquarters; Rate 31 g/ha, PREEMERGENCE): 100
Plant response rating, Wild buckwheat (wild buckwheat; POSTEMERGENCE): 100
Plant response rating (0 to 100), Wild buckwheat (wild buckwheat; POSTEMERGENCE, Rate 2 g/ha): 100
Plant response rating, Wild buckwheat (wild buckwheat; PREEMERGENCE): 100
Plant response rating (0 to 100), Wild buckwheat (wild buckwheat; PREEMERGENCE, Rate 2 g/ha): 0
Plant response rating (0 to 100), Wild buckwheat (wild buckwheat; Rate 8 g/ha, POSTEMERGENCE): 100
Plant response rating (0 to 100), Wild buckwheat (wild buckwheat; Rate 8 g/ha, PREEMERGENCE): 40
Plant response rating (0 to 100), Wild buckwheat (wild buckwheat; Rate 31 g/ha, POSTEMERGENCE): 100
Plant response rating (0 to 100), Wild buckwheat (wild buckwheat; Rate 31 g/ha, PREEMERGENCE): 100
Plant response rating, Cotton (cotton [4]; POSTEMERGENCE): 100
Plant response rating (0 to 100), Cotton (cotton [4]; POSTEMERGENCE, Rate 2 g/ha): 95
Plant response rating, Cotton (cotton [4]; PREEMERGENCE): 40
Plant response rating (0 to 100), Cotton (cotton [4]; PREEMERGENCE, Rate 2 g/ha): 0
Plant response rating (0 to 100), Cotton (cotton [4]; Rate 8 g/ha, POSTEMERGENCE): 100
Plant response rating (0 to 100), Cotton (cotton [4]; Rate 8 g/ha, PREEMERGENCE): 0
Plant response rating (0 to 100), Cotton (cotton [4]; Rate 31 g/ha, POSTEMERGENCE): 100
Plant response rating (0 to 100), Cotton (cotton [4]; Rate 31 g/ha, PREEMERGENCE): 10
Plant response rating (0 to 100), Barnyardgrass 2 (barnyardgrass; [5]): 0
Plant response rating (0 to 100), Barnyardgrass 2 (barnyardgrass; [6]): 95
Plant response rating (0 to 100), Barnyardgrass 2 (barnyardgrass; [7]): 100
Plant response rating Barnyardgrass 2 (barnyardgrass; [8]): 100
Plant response rating, Crabgrass (crabgrass; POSTEMERGENCE, Rate 50 g/ha): 3
Plant response rating, Crabgrass (crabgrass; PREEMERGENCE, Rate 50 g/ha): 0
Plant response rating (0 to 10 scale), Crabgrass (crabgrass; PREEMERGENCE, Rate 200 g/ha): 9
Plant response rating, Crabgrass (crabgrass; Rate 200 g/ha, POSTEMERGENCE): 3
Plant response rating, Corn (corn; POSTEMERGENCE, Rate 50 g/ha): 5
Plant response rating, Corn (corn; PREEMERGENCE, Rate 50 g/ha): 2
Plant response rating (0 to 10 scale), Corn (corn; PREEMERGENCE, Rate 200 g/ha): 4
Plant response rating, Corn (corn; Rate 200 g/ha, POSTEMERGENCE): 6
